Results from the NIST ThermoML archive (doi:10.1016/j.jct.2015.08.014).

Test: xn = mol fraction of the nth substance listed
Conditions: 323.15 K, 100 kPa, Liquid, Alternating current cell with electrodes

CCCC[N+]1(C)CCCC1.N#CN=C=[N-] [1-butyl-1-methylpyrrolidinium dicyanamide] + O=C1CCCO1
electrical conductivity [S/m]
Conditions	Frequency=0.001 MHz	Frequency=0.0015 MHz	Frequency=0.002 MHz	Frequency=0.0025 MHz	Frequency=0.003 MHz	Frequency=0.00347222 MHz	Frequency=0.004 MHz	Frequency=0.00446429 MHz	Frequency=0.005 MHz	Frequency=0.005454 MHz
x1 = 0.0463	–	2	2	2.01	2.01	2.01	2.01	2.01	2.01	2.01
x1 = 0.0987	3.06	3.07	3.07	3.07	3.08	3.08	3.08	3.08	3.08	3.08
x1 = 0.1449	3.56	3.56	3.56	3.56	3.56	3.57	3.57	3.57	3.57	3.57
x1 = 0.1859	3.83	3.84	3.84	3.85	3.85	3.85	3.85	3.85	3.85	3.85
x1 = 0.2493	3.89	3.89	3.89	3.89	3.89	3.89	3.89	3.89	3.89	3.89
x1 = 0.3029	3.86	3.87	3.87	3.87	3.87	3.87	3.87	3.87	3.87	3.88
x1 = 0.3845	3.732	3.73	3.74	3.74	3.74	3.74	3.74	3.74	3.74	3.74
x1 = 0.4985	3.46	3.46	3.46	3.46	3.46	3.46	3.46	3.46	3.46	3.46
x1 = 0.6954	2.99	2.99	2.99	2.99	2.99	2.99	2.99	2.99	2.99	2.99
x1 = 0.9013	2.626	2.628	2.63	2.63	2.631	2.632	2.632	2.632	2.633	–
x1 = 1	2.526	2.527	2.528	2.528	2.528	2.528	2.529	2.529	2.529	–
